Data taken from EPA's ToxValDB 9.5 (doi:10.2903/j.efsa.2006.62r).
In brackets after ≈: the same amount, converted by molar mass.

Tests used:
Folsomia candida = settings: chronic/long-term; reproduction
Bibionidae = settings: chronic/long-term; other
Aphidius rhopalosiphi = assay: LR50; higher = less toxic; settings: not reported; mortality
Hypoaspis aculeifer = settings: chronic/long-term; duration: 14 days; mortality
Canidae = settings: oral, Dog Other, neurology
Oryctolagus sp. = settings: developmental; development
Daphnia magna = settings: chronic/long-term; growth
Lepomis macrochirus = settings: acute; duration: 96 hours; mortality
Oncorhynchus mykiss = settings: chronic/long-term; duration: 91 days; development
Rattus norvegicus = settings: acute; M; mortality
Apis mellifera = settings: acute, mortality

Compound | NOEC (Folsomia candida) [mg/kg] | NOEC (Bibionidae) [mg/L] | LR50 (Aphidius rhopalosiphi) [g/ha] | NOEC (Hypoaspis aculeifer) [mg/kg] | NOAEL (Canidae; acute) [mg/kg-day] | NOAEL (Canidae; chronic, duration: 1 years) [mg/kg-day] | NOAEL (Oryctolagus sp.) [mg/kg-day] | NOEC (Daphnia magna) [mg/L] | LC50 (Tagia sp.; acute, duration: 14 days, mortality) [mg/kg] | NOEC (Tagia sp.; chronic/long-term, duration: 8 weeks, reproduction) [g/ha] | LEL (Colinus virginianus; acute, oral, M) [mg/kg-day] | NOEC (Colinus virginianus; reproduction developmental, M/F) [mg/kg-day] | LEC (Colinus virginianus; short-term, oral, diet) [mg/kg-day] | LC50 (Lepomis macrochirus) [ng/mL] | NOEC (Oncorhynchus mykiss) [mg/L] | LD50 (Rattus norvegicus) [mg/kg] | LD50 (Apis mellifera; duration: 48 hours, dermal) [µg/piece] | LD50 (Apis mellifera; oral, unspecified) [µg/piece]
CCOP(=O)(NC(C)C)Oc1ccc(S(C)(=O)=O)c(C)c1 (stereo not given) [Fenamiphos sulfone] | 3.75 | – | – | – | – | – | – | – | – | – | – | – | – | – | – | – | – | –
CCOP(=O)(NC(C)C)Oc1ccc(S(C)=O)c(C)c1 (stereo not given) [Fenamiphos sulfoxide] | 2 | 0.058 | – | – | – | – | – | – | – | – | – | – | – | – | – | – | – | –
CCOP(=O)(NC(C)C)Oc1ccc(SC)c(C)c1 (stereo not given) [Fenamiphos] | 0.313 | – | 0.175 | 1.33 | 0.25 | 0.083 | 0.3 | 0.00012 | 888 | < 6000 | 0.8 | 0.2 | 6 | 9.3 (≈ 0.0307 µM) | 0.0038 | 6 | 0.28 | 0.45
